Assay results from patent publication US20060258581A1, “Methods and composition for derepressions of IAP-inhibited caspase” (priority 2001, published 2006).

Experiments:
[1] = system: normal bone marrow mononuclear cells; assay: Normal bone marrow mononuclear cells versus Jurkat, Annexin V, 20 hours; format: cell-based; details: 5 μM
Protocol: After incubation, cells were washed, stained with FITC-conjugated Annexin V antibody and propidium iodide, and fluorescence measured by flow cytometry as described above.

[2] = system: U937 leukemia cells over-expressing XIAP; assay: U937-Neo versus U937-XIAP leukemia cells, Annexin V; format: cell-based; details: 5 or 8 μM, 20 hours
Protocol: After incubation, cells were washed, stained with FITC-conjugated Annexin V antibody and propidium iodide, and fluorescence measured by flow cytometry as described in Example XI.
Equal amounts of protein were subjected to SDS-PAGE (4-20% gradient gels from ISC BioExpress, Kaysville, Utah), followed by transfer to nitrocellulose membranes. […] Secondary antibodies consisted of horseradish peroxidase (HRP)-conjugated:goat anti-mouse IgG (Bio-Rad, Hercules, Calif.). Detection was performed by the enhanced chemiluminescence (ECL) method. […] Lysates were prepared from the cells, normalized for total protein content and analyzed by SDS-PAGE immunoblotting using antibodies specific for XIAP, caspase-3, and β-actin.

[3] = system: Jurkat and HeLa tumor cell lines; assay: Tumor cell lines Jurkat and HeLa, 2 days, annexin-V; format: cell-based; set-up: dose or concentration left out as unconfirmed
Protocol: After 2 days, cell viability was assessed by annexin-V staining.

full length XIAP = full length XIAP (Homo sapiens, UniProt P98170); assay: Potency of IAP antagonists in vitro (Table VIII; caspase derepression / SMAC competition with full length XIAP)
Sequence of full length XIAP (P98170 whole entry): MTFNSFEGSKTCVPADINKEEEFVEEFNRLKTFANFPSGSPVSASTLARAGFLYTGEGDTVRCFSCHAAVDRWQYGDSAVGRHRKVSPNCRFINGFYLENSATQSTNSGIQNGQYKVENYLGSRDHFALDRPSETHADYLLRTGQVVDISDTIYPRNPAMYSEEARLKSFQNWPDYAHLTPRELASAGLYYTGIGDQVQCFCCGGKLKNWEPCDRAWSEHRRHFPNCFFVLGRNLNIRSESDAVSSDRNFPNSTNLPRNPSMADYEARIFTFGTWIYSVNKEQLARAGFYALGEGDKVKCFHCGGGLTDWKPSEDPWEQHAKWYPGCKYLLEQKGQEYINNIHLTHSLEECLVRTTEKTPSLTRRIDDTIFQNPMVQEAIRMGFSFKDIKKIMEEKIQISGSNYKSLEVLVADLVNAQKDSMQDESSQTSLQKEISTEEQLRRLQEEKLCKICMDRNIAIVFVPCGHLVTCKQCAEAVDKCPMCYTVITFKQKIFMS

For `COc1ccc(CCN2CCC[C@@H]2CN(C(=O)Nc2ccccc2)[C@@H](CNC(=O)Nc2ccccc2)CC2CCCCC2)cc1` [TPI 1396-34], the “toxicity to normal bone marrow cells” value [1] was “little toxicity”, the “effect of over-expression of XIAP on apoptosis induction” value [2] was “resistant” and the “increase of killing above background” value [3] was > 4 fold. The EC50 (full length XIAP) was 77.1 µM.
